# Laboratory results from patent US10233151B2, “Use of a novel 3-aryl-4-catechol-pyrrole-N-propanol compound and the derivatives thereof to treat cancer and diseases related to excessive angiogenesis” (Centre National de la Recherche Scientifique (CNRS), priority 2014, dated 2019).
# System: endothelial cells (HUVEC)
# Assay: Survival of endothelial cells in proliferative or quiescent phase
# Type: cell-based, human
# Details: 48 hours
# Procedure: In order to understand the difference in the observed effects of compound (1) according to whether the vasculature is already formed or is growing “de novo”, vascular endothelial cells were cultured at two different cell densities so as to obtain proliferative phase cells or quiescent cells, then treated or not by compound (1), at 10 μM (IC50 value: 8 μM) for 48 hours. […] Compound (1) may thus be used to treat diseases associated with excessive and abnormal angiogenesis, like cancer or ARMD.
structure (smiles),measurement,setting,value
OCCCn1cc(-c2ccccc2)c(-c2ccc(O)c(O)c2)c1 [compound (1)],effect on quiescent endothelial cells,"10 μM, quiescent cells",acts only on endothelial cells in the proliferative phase
same,inhibition at 10 µM,"Homo sapiens, HUVEC, 10 μM, proliferative phase",78%
same,IC50,"Homo sapiens, HUVEC, read-out: IC50 value, vascular endothelial cells",8 µM
